Data reported in the NIST ThermoML archive (doi:10.1016/j.fluid.2018.08.012).
Several values for one entry are separate records, joined by “and”; a condition that tells them apart may be missing. Equal values may be shown once. Numbers after ± are expanded uncertainties.

Assay: mn = molality of the nth substance listed, in mol/kg
Conditions: Fluid (supercritical or subcritical phases), Vibrating tube method, m1 = 0.2322

**Q.** Which results are given for `S=C=S` [carbon disulfide] + O=C=O?
**A.** mass density (324.09 K, 5020 kPa): 107.03 ± 0.2 kg/m3; mass density (324.09 K, 5037.7 kPa): 107.14 ± 0.2 kg/m3; mass density (324.09 K, 7541 kPa): 199.79 ± 0.58 kg/m3; mass density (324.09 K, 7551.5 kPa): 199.54 ± 0.58 kg/m3; mass density (324.09 K, 10053 kPa): 403.53 ± 1.2 kg/m3; mass density (324.09 K, 10060 kPa): 402.21 ± 1.2 kg/m3; mass density (324.09 K, 12570 kPa): 624.02 ± 1.3 kg/m3; mass density (324.09 K, 12604 kPa): 625.07 ± 1.3 kg/m3; mass density (324.09 K, 15125 kPa): 707.48 ± 1.1 kg/m3; mass density (324.09 K, 15142 kPa): 707.56 ± 1.1 kg/m3; mass density (324.09 K, 17653 kPa): 755.16 ± 0.93 kg/m3; mass density (324.09 K, 17669 kPa): 755.21 ± 0.93 kg/m3; mass density (324.09 K, 20182 kPa): 789.28 ± 0.82 kg/m3; mass density (324.09 K, 20197 kPa): 789.34 ± 0.82 kg/m3; mass density (324.09 K, 22699 kPa): 815.92 ± 0.75 kg/m3; mass density (324.09 K, 22712 kPa): 815.94 ± 0.75 kg/m3; mass density (324.09 K, 25212 kPa): 837.95 ± 0.71 kg/m3; mass density (324.09 K, 25226 kPa): 837.97 ± 0.71 kg/m3; mass density (324.09 K, 27728 kPa): 856.85 ± 0.68 kg/m3; mass density (324.09 K, 27741 kPa): 856.86 ± 0.68 kg/m3; mass density (324.09 K, 30237 kPa): 873.42 ± 0.67 kg/m3; mass density (324.09 K, 30252 kPa): 873.43 ± 0.67 kg/m3; mass density (324.09 K, 32734 kPa): 888.17 ± 0.66 kg/m3; mass density (324.09 K, 32750 kPa): 888.17 ± 0.66 kg/m3; mass density (324.09 K, 35219 kPa): 901.47 ± 0.67 kg/m3; mass density (324.09 K, 35227 kPa): 901.44 ± 0.67 kg/m3; mass density (349.43 K, 5049.6 kPa): 92.26 ± 0.16 kg/m3; mass density (349.43 K, 5059.9 kPa): 92.17 ± 0.16 kg/m3; mass density (349.43 K, 7561.3 kPa): 154.46 ± 0.3 kg/m3; mass density (349.43 K, 7565.2 kPa): 155.4 ± 0.3 kg/m3; mass density (349.43 K, 10072 kPa): 237.91 ± 0.66 kg/m3; mass density (349.43 K, 10079 kPa): 236.77 ± 0.66 kg/m3; mass density (349.43 K, 12659 kPa): 351.82 ± 1.1 kg/m3; mass density (349.43 K, 12682 kPa): 350.77 ± 1.1 kg/m3; mass density (349.43 K, 15194 kPa): 474.54 ± 1.3 kg/m3; mass density (349.43 K, 15210 kPa): 471.73 ± 1.3 kg/m3; mass density (349.43 K, 17724 kPa): 568.76 ± 1.3 kg/m3; mass density (349.43 K, 17738 kPa): 565.77 ± 1.3 kg/m3; mass density (349.43 K, 20245 kPa): 633.49 ± 1.1 kg/m3; mass density (349.43 K, 20260 kPa): 630.9 ± 1.2 kg/m3; mass density (349.43 K, 22769 kPa): 680.4 ± 1.1 kg/m3; mass density (349.43 K, 22783 kPa): 678.14 ± 1.1 kg/m3; mass density (349.43 K, 25280 kPa): 716.41 ± 1 kg/m3; mass density (349.43 K, 25300 kPa): 714.54 ± 1 kg/m3; mass density (349.43 K, 27790 kPa): 745.77 ± 0.96 kg/m3; mass density (349.43 K, 27805 kPa): 744.03 ± 0.96 kg/m3; mass density (349.43 K, 30301 kPa): 770.42 ± 0.93 kg/m3; mass density (349.43 K, 30313 kPa): 768.82 ± 0.93 kg/m3; mass density (349.43 K, 32807 kPa): 791.68 ± 0.9 kg/m3; mass density (349.43 K, 32815 kPa): 790.19 ± 0.9 kg/m3; mass density (349.43 K, 35294 kPa): 808.86 ± 0.94 kg/m3; mass density (349.43 K, 35296 kPa): 810.28 ± 0.96 kg/m3; mass density (374.78 K, 5066.1 kPa): 82.47 ± 0.14 kg/m3; mass density (374.78 K, 5070.7 kPa): 82.42 ± 0.14 kg/m3; mass density (374.78 K, 7581.5 kPa): 133.35 ± 0.24 kg/m3; mass density (374.78 K, 7585 kPa): 133.32 ± 0.24 kg/m3; mass density (374.78 K, 10086 kPa): 191.97 ± 0.41 kg/m3; mass density (374.78 K, 10088 kPa): 191.92 ± 0.41 kg/m3; mass density (374.78 K, 15040 kPa): 335.44 ± 0.88 kg/m3; mass density (374.78 K, 15062 kPa): 335.78 ± 0.89 kg/m3; mass density (374.78 K, 17568 kPa): 413.55 ± 1.1 kg/m3; mass density (374.78 K, 17587 kPa): 413.86 ± 1.1 kg/m3; mass density (374.78 K, 20094 kPa): 484.4 ± 1.3 kg/m3; mass density (374.78 K, 20111 kPa): 484.48 ± 1.3 kg/m3; mass density (374.78 K, 22615 kPa): 543.66 ± 1.3 kg/m3; mass density (374.78 K, 22634 kPa): 543.72 ± 1.3 kg/m3; mass density (374.78 K, 25138 kPa): 592.09 ± 1.2 kg/m3; mass density (374.78 K, 25153 kPa): 592 ± 1.2 kg/m3; mass density (374.78 K, 27657 kPa): 631.81 ± 1.2 kg/m3; mass density (374.78 K, 27672 kPa): 631.68 ± 1.2 kg/m3; mass density (374.78 K, 30176 kPa): 665.02 ± 1.2 kg/m3; mass density (374.78 K, 30185 kPa): 664.78 ± 1.2 kg/m3; mass density (374.78 K, 32689 kPa): 693.03 ± 1.2 kg/m3; mass density (374.78 K, 32690 kPa): 693.42 ± 1.2 kg/m3; mass density (374.78 K, 35184 kPa): 717.46 ± 1.2 kg/m3; mass density (374.78 K, 35192 kPa): 717.92 ± 1.2 kg/m3; mass density (400.5 K, 5077 kPa): 75.32 ± 0.12 kg/m3; mass density (400.5 K, 5080.3 kPa): 74.8 ± 0.13 kg/m3; mass density (400.5 K, 7594.6 kPa): 118.07 ± 0.2 kg/m3 and 118.35 ± 0.2 kg/m3; mass density (400.5 K, 10099 kPa): 166.1 ± 0.33 kg/m3; mass density (400.5 K, 10100 kPa): 165.54 ± 0.33 kg/m3; mass density (400.5 K, 15048 kPa): 272.65 ± 0.65 kg/m3; mass density (400.5 K, 15074 kPa): 273.42 ± 0.65 kg/m3; mass density (400.5 K, 17570 kPa): 330.78 ± 0.98 kg/m3; mass density (400.5 K, 17602 kPa): 331.7 ± 0.99 kg/m3; mass density (400.5 K, 20096 kPa): 388.17 ± 1.2 kg/m3; mass density (400.5 K, 20129 kPa): 389.15 ± 1.2 kg/m3; mass density (400.5 K, 22617 kPa): 441.87 ± 1.4 kg/m3; mass density (400.5 K, 22654 kPa): 442.82 ± 1.4 kg/m3; mass density (400.5 K, 25139 kPa): 490.19 ± 1.6 kg/m3; mass density (400.5 K, 25176 kPa): 491.09 ± 1.6 kg/m3; mass density (400.5 K, 27660 kPa): 532.79 ± 1.4 kg/m3; mass density (400.5 K, 27688 kPa): 533.55 ± 1.4 kg/m3; mass density (400.5 K, 30177 kPa): 569.95 ± 1.4 kg/m3; mass density (400.5 K, 30206 kPa): 570.64 ± 1.4 kg/m3; mass density (400.5 K, 32686 kPa): 602.4 ± 1.4 kg/m3; mass density (400.5 K, 32712 kPa): 602.99 ± 1.4 kg/m3; mass density (400.5 K, 35192 kPa): 631.01 ± 1.4 kg/m3; mass density (400.5 K, 35205 kPa): 631.44 ± 1.4 kg/m3
